Measured values taken from patent US7528140B2, “Substituted pyrrolo[3,2-d]pyrimidines as glycogen synthase kinase (GSK) inhibitors” (Teijin Limited, priority 2002, dated 2009).

biological target: recombinant human GSK-3β (Homo sapiens, UniProt P49841); experiment: Measurement of GSK-3 enzyme activity inhibition (32P phosphorylation of phospho-glycogen synthase peptide-2); format: biochemical; conditions: 20 μM ATP, 20 minutes at room temperature, read-out: GSK-3 enzyme inhibiting activity (IC50)
Sequence (P49841 whole entry): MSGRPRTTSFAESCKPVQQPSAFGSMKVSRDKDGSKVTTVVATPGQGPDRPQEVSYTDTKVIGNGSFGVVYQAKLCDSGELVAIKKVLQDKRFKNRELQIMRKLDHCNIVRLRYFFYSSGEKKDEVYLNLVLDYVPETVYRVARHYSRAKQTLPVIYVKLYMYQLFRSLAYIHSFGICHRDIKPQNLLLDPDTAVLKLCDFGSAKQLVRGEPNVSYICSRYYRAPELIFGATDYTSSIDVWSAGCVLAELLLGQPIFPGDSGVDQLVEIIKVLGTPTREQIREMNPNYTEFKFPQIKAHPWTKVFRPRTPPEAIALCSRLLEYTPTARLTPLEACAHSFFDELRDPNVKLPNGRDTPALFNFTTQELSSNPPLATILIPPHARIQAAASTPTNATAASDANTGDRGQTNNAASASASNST
Procedure: Measurement of GSK-3 Enzyme Activity Inhibition
After adding 25 μL of phospho-glycogen synthase peptide-2 substrate solution [6 μM phospho -glycogen synthase peptide-2, 20 μM ATP, 16 mM MOPS buffer (pH 7.0), 0.2 mM EDTA, 20 mM magnesium acetate, 0.1 μCi [γ-^32P]ATP (specific activity: approximately 110 TBq/mmol)]to 5 μL of the test compound using 5% dimethylsulfoxide as the solvent, reaction was initiated by further addition of 20 μL of a GSK-3β enzyme solution [10 mU recombinant human GSK-3β, 20 mM MOPS buffer (pH 7.0), 1 mM EDTA, 0.1% polyoxyethylene lauryl ether (23 Lauryl Ether; Brij 35), 5% glycerol, 0.1% β-mercaptoethanol]. After conducting the reaction for 20 minutes at room temperature, an equivalent volume of a 200 mM phosphoric acid solution was added to quench the reaction, and 90 μL of the reaction product was adsorbed onto a MultiScreen PH plate (Millipore) and rinsed with a 100 mM phosphoric acid solution. After drying the plate, 30 μL of Micro Scint-O (Packard BioScience) was added, and the cpm was measured with a scintillation counter to determine the inhibiting activity. Phospho GS Peptide2 is […]P)-Glu-Asp-Glu-Glu-Glu (SEQ ID NO:1).

SMILES | IC50 [nM]
N#Cc1c(-c2ccccc2Br)[nH]c2c(=O)[nH]cnc12 [1-1040, 6-(2-bromophenyl)-4-oxo-3-hydropyrrolo[3,2-d]pyrimidine-7-carbonitrile] | 1000 to 10000
CC(C)(C)OC(=O)NCCCn1c(-c2ccccc2)c(C#N)c2nc[nH]c(=O)c21 [2-0208] | 1000 to 10000
N#Cc1c(-c2ccccc2)n(CCCOC(=O)c2ccco2)c2c(=O)[nH]cnc12 [2-0530] | 1000 to 10000
N#Cc1c(-c2ccccc2)n(CCNC(=O)c2ccccc2)c2c(=S)[nH]cnc12 [2-0558] | 30 to 100
Cc1ccoc1-c1c(C#N)c2nc[nH]c(=S)c2n1CCNC(=O)C(F)(F)F [2-0601, N-{2-[7-cyano-6-(3-methyl(2-furyl))-4-thioxo(3-hydropyrrolo[3,2-d]pyrimidin-5-yl)]ethyl}-2,2,2-trifluoroacetamide] | 10 to 30
Cn1cccc1-c1c(C#N)c2nc[nH]c(=S)c2n1CCNC(=O)C(F)(F)F [2-0604, N-{2-[7-cyano-6-(1-methylpyrrol-2-yl)-4-thioxo(3-hydropyrrolo[3,2-d]pyrimidin-5-yl)]ethyl}-2,2,2-trifluoroacetamide] | 30 to 100
N#Cc1c(-c2ccccc2)n(CCNCc2ccccc2)c2c(=S)[nH]cnc12 [2-1775, 6-phenyl-5-{2-[benzylamino]ethyl}-4-thioxo-3-hydropyrrolo[3,2-d]pyrimidine-7-carbonitrile] | 1000 to 10000
N#Cc1c(-c2ccco2)n(CCNC(=O)C(F)(F)F)c2c(=S)[nH]cnc12 [2-1804, N-[2-(7-cyano-6-(2-furyl)-4-thioxo(3-hydropyrrolo[3,2-d]pyrimidin-5-yl))ethyl]-2,2,2-trifluoroacetamide] | 30 to 100
N#Cc1c(-c2ccccc2)n(CCn2c(=O)[nH]c3ccccc3c2=O)c2c(=S)[nH]cnc12 [2-1849, 5-[2-(2,4-dioxo(1,3-dihydroquinazolin-3-yl))ethyl]-6-phenyl-4-thioxo-3-hydropyrrolo[3,2-d]pyrimidine-7-carbonitrile] | 1000 to 10000
N#Cc1c(-c2ccco2)n(CCC(=O)N2CCCCC2)c2c(=S)[nH]cnc12 [3-0156] | < 10
N#Cc1c(-c2ccccc2)n(CCC(=O)N2CCOCC2)c2c(=S)[nH]cnc12 [3-0294] | 30 to 100
CCOC(=O)CCn1c(-c2ccccc2)c(C#N)c2nc[nH]c(=S)c21 [4-0005, ethyl 3-(7-cyano-6-phenyl-4-thioxo-3-hydropyrrolo[3,2-d]pyrimidin-5-yl)propanoate] | 1000 to 10000
N#Cc1c(C2CC2)n(CCC(=O)O)c2c(=S)[nH]cnc12 [4-0092, 3-(7-cyano-6-cyclopropyl-4-thioxo-3-hydropyrrolo[3,2-d]pyrimidin-5-yl)propanoic acid] | 10 to 30
N#Cc1c(NC2CC2)n(CCNC(=O)c2ccccc2)c2c(=S)[nH]cnc12 [6-0413, N-{2-[7-cyano-6-(cyclopropylamino)-4-thioxo(3-hydropyrrolo[3,2-d]pyrimidin-5-yl)]ethyl}benzamide] | 10 to 30

Further lines, results first:

IC50 [nM] | SMILES
1000 to 10000 | N#Cc1c(-c2ccccc2N)[nH]c2c(=S)[nH]cnc12 [1-0753, 6-(2-aminophenyl)-4-thioxo-3-hydropyrrolo[3,2-d]pyrimidine-7-carbonitrile]
1000 to 10000 | CC(=O)OCCCn1c(-c2ccccc2)c(C#N)c2nc[nH]c(=O)c21 [2-0519]
30 to 100 | Cc1ccc(N)c(C(=O)NCCn2c(-c3ccccc3)c(C#N)c3nc[nH]c(=S)c32)c1 [2-0635, (2-amino-5-methylphenyl)-N-[2-(7-cyano-6-phenyl-4-thioxo(3-hydropyrrolo[3,2-d]pyrimidin-5-yl))ethyl]carboxamide]
1000 to 10000 | Cc1ccoc1-c1c(C#N)c2nc[nH]c(=O)c2n1CCNC(=O)C(F)(F)F [2-1664, N-{2-[7-cyano-6-(3-methyl(2-furyl))-4-oxo(3-hydropyrrolo[3,2-d]pyrimidin-5-yl)]ethyl}-2,2,2-trifluoroacetamide]
30 to 100 | N#Cc1c(-c2ccccc2)n(CCNC(=O)Nc2cccc(C(=O)O)c2)c2c(=S)[nH]cnc12 [2-1777, 3-({N-[2-(7-cyano-6-phenyl-4-thioxo-3-hydropyrrolo[3,2-d]pyrimidin-5-yl)ethyl]carbamoyl}amino)benzoic acid]
30 to 100 | CN(CCn1c(-c2ccccc2)c(C#N)c2nc[nH]c(=S)c21)C(=O)C(F)(F)F [2-1855]
1000 to 10000 | CN(C(=O)CCn1c(-c2ccccc2)c(C#N)c2nc[nH]c(=S)c21)c1ccccc1 [3-0099]
30 to 100 | N#Cc1c(-c2ccccc2)n(CCC(=O)N2CCCC2)c2c(=S)[nH]cnc12 [3-0148]
< 10 | N#Cc1c(-c2ccccc2)n(CCC(=O)N2CCCCC2)c2c(=S)[nH]cnc12 [3-0152]
< 10 | N#Cc1c(-c2ccccc2)n(CCC(=O)N2CCC(C(=O)O)CC2)c2c(=S)[nH]cnc12 [3-0231, 1-[3-(7-cyano-6-phenyl-4-thioxo-3-hydropyrrolo[3,2-d]pyrimidin-5-yl)propanoyl]piperidine-4-carboxylic acid]
30 to 100 | CCNC(=O)CCn1c(-c2ccccc2)c(C#N)c2nc[nH]c(=S)c21 [3-1792]
1000 to 10000 | CCOC(=O)CCCn1c(-c2ccccc2)c(C#N)c2nc[nH]c(=O)c21 [4-0030]
30 to 100 | CN(C)c1c(C#N)c2nc[nH]c(=S)c2n1CCNC(=O)c1ccc(F)cc1 [6-1029, N-{2-[6-(dimethylamino)-7-cyano-4-thioxo(3-hydropyrrolo[3,2-d]pyrimidin-5-yl)]ethyl}(4-fluorophenyl)carboxamide]
30 to 100 | N#Cc1c(N2CCCC2)n(CCNC(=O)c2ccc(F)cc2)c2c(=S)[nH]cnc12 [6-1031, N-[2-(7-cyano-6-pyrrolidinyl-4-thioxo(3-hydropyrrolo[3,2-d]pyrimidin-5-yl))ethyl](4-fluorophenyl)carboxamide]
